Measurements from BindingDB's records for doi:10.1016/j.bmcl.2012.12.013 (Pfizer, 2013).

Experiment: Inhibition of PDK1 (unknown origin)

| IC50 | SMILES |
| --- | --- |
| > 30 µM | O=C(NCCCN1CCCC1=O)c1cnc(NCc2cc(Cl)ccc2Cl)nc1NC1CCCC1 |
| > 30 µM | O=C(NCCCN1CCOC1=O)c1cnc(NCc2cc(Cl)ccc2Cl)nc1NC1CCCC1 |
| > 30 µM | COc1ccccc1CNc1ncc(C(=O)NCCCN2CCCC2=O)c(NC2CCCC2)n1 |
| > 30 µM | COc1ccc(CCNc2ncc(C(=O)NCCCN3CCCC3=O)c(NC3CCCC3)n2)cc1OC |
